The text below walks through data of publication PMC8279479, “Application of Alanine Scanning to Determination of Amino Acids Essential for Peptide Adsorption at the Solid/Solution Interface and Binding to the Receptor: Surface-Enhanced Raman/Infrared Spectroscopy versus Bioactivity Assays” (Journal of Medicinal Chemistry, 2021).

Where no end group is shown, it is not given here.

One experiment deals with human BB1 receptor (Homo sapiens, UniProt P28336). Put plainly: Intracellular inositol monophosphate (IP-One HTRF) assay, HEK-293 cells overexpressing BB1 receptor. The settings on record: BB1R HEK-293. It is filed as cell-based. As to the method: (§1) Additionally, reference compounds BIM23042 and PD176252 (both from Tocris) antagonists of BB1 and BB2 receptors were used in a concentration of 10 μM (Figure 7).
Sequence of human BB1 receptor (P28336 whole entry): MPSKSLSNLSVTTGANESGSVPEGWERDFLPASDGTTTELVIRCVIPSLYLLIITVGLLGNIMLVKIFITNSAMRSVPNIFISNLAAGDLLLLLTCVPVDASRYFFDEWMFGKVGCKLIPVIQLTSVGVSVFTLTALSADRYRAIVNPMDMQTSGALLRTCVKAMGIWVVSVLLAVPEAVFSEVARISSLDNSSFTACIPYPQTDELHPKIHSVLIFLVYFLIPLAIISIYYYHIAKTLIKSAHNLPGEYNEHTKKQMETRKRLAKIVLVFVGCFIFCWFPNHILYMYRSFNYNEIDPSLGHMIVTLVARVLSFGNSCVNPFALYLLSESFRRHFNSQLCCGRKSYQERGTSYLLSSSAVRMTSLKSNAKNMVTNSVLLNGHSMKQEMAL
(§2) The human BB1 receptor NM_002511.3 (GenScript) and BB2 receptor NM_002091 (cDNA Resource Center) sequences in pcDNA 3.1 + plasmids were introduced into the host cell by lipofection (Lipofectamine Reagent 3000, Thermo Fisher Scientific). Then, the transfected cells were selected with G-418 antibiotic at a dose of 500 μg/mL. Cells were grown under standard cell culture conditions (37 °C, 5% CO2) in DMEM supplemented with 10% FBS and Glutamax.
(§3) Receptor activity was determined by measuring the intracellular inositol monophosphate concentration using a homogeneous time-resolved fluorescence IP-one kit from Cis-bio, according to the manual. Briefly, 24 h before assay, cells were grown in an FBS-free DMEM medium. Then, the cells were scraped and centrifuged. The cell pellet was suspended in Hanks-HEPES (130 mM NaCl, 5.4 mM KCl, 1.8 mM CaCl2, 0.8 mM MgSO4, 0.9 mM NaH2PO4, 20 mM HEPES, LiCl 50 mM, and 3.25 mM glucose; pH 7.4). […] The cell suspension was then mixed with 5 μL of the IP1-acceptor conjugate and 5 μL of the anti-IP1-donor conjugate. After 1 h incubation at RT, fluorescence was read at 620 and 665 nm (Tecan; Infinite M1000). Results were calculated as the ratio (665 nm/620 nm) multiplied by 10^4. The signal was inversely proportional to the concentration of IP1 in the samples. Each sample was prepared in triplicate. Data were analyzed using GraphPad Prism version 5.04 for Windows (GraphPad software).
A general note: In TR-FRET formats the signal depends on donor and acceptor labels being close together.

For a further experiment, the target named is human BB2 receptor (Homo sapiens, UniProt P30550). Put plainly: Intracellular inositol monophosphate (IP-One HTRF) assay, HEK-293 cells overexpressing BB2 receptor. The settings on record: BB2R HEK-293. The class given is cell-based. As to the method:
as §1, §2, §3

Sequence of human BB2 receptor (P30550 whole entry): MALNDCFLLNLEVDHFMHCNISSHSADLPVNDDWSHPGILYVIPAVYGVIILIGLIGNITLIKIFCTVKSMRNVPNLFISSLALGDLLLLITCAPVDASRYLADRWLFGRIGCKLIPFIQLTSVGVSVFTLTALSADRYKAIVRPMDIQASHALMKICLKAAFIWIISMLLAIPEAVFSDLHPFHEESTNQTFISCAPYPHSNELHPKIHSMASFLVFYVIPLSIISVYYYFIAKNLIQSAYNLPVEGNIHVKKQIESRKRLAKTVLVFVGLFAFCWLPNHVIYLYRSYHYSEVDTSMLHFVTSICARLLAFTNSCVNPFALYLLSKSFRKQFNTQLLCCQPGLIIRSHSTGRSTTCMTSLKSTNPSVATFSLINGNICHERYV

As to `COc1ccc(C2(CNC(=O)[C@](C)(Cc3c[nH]c4ccccc34)NC(=O)Nc3ccc([N+](=O)[O-])cc3)CCCCC2)nc1` [PD176252], the “Effect of reference antagonist alone on basal receptor activity (IP1)” value on human BB1 receptor (reference compound 10 μM alone (Figure 7A)) and on human BB2 receptor (reference compound 10 μM alone (Figure 7B)) was “inhibited the basal activity” throughout. Moreover, the entries for the “Effect of reference antagonist on IP1 concentration in the presence of agonist” value on human BB1 receptor (reference compound 10 μM with BN 150 nM (Figure 7A)) and at human BB2 receptor (reference compound 10 μM with BN 150 nM (Figure 7B)) were “downregulated IP1 concentration to control level” and “significantly reduced its level”, respectively.

As to “Asn-Gln-Ala-Ala-Val-Gly-His-Leu-Met-NH2 (NQAAVGHLM-NH2) [[Ala^3]BN^6–14]”, the “Agonist effect of compound alone on intracellular IP1” value with human BB1 receptor (compound alone 25 μM, 1 h, 37 °C (Figure 7A)) is recorded as “little change in the activity”; in the experiment with human BB2 receptor (compound alone 25 μM, 1 h, 37 °C (Figure 7B)) it was “little change in the activity”.
